In ChEMBL document CHEMBL3407465, “Interaction of human organic anion transporter polypeptides 1B1 and 1B3 with antineoplastic compounds” (Eur J Med Chem, 2015):

Experiments:
[1] = target: T1, Solute carrier organic anion transporter family member 1B3 (Homo sapiens, UniProt Q9NPD5); assay: Stimulation of human OATP1B3-mediated [3H]CCK-8 at 100 uM after 5 mins relative to control; type: ADME
T1 sequence (Q9NPD5 whole entry): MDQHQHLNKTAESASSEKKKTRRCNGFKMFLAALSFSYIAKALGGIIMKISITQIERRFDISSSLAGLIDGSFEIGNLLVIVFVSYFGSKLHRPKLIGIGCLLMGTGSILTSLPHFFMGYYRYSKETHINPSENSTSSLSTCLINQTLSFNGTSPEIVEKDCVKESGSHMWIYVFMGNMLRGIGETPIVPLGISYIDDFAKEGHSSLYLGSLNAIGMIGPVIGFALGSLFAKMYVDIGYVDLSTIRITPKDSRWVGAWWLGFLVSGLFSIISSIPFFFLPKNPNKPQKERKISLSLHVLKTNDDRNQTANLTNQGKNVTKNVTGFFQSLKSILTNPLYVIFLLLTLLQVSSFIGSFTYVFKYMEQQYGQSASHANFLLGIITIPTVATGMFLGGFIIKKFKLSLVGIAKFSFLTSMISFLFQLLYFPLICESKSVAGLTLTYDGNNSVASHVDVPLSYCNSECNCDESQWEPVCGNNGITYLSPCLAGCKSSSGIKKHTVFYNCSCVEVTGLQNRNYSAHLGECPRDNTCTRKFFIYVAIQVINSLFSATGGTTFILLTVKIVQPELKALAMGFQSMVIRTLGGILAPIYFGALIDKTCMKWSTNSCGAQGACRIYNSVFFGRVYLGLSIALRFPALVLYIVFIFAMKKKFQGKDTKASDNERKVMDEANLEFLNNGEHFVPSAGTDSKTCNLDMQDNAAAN

[2] = target: T2, Solute carrier organic anion transporter family member 1B1 (Homo sapiens, UniProt Q9Y6L6); assay: Stimulation of human OATP1B1-mediated [3H]estrone 3-sulfate at 100 uM after 5 mins relative to control; type: ADME
T2 sequence (Q9Y6L6 whole entry): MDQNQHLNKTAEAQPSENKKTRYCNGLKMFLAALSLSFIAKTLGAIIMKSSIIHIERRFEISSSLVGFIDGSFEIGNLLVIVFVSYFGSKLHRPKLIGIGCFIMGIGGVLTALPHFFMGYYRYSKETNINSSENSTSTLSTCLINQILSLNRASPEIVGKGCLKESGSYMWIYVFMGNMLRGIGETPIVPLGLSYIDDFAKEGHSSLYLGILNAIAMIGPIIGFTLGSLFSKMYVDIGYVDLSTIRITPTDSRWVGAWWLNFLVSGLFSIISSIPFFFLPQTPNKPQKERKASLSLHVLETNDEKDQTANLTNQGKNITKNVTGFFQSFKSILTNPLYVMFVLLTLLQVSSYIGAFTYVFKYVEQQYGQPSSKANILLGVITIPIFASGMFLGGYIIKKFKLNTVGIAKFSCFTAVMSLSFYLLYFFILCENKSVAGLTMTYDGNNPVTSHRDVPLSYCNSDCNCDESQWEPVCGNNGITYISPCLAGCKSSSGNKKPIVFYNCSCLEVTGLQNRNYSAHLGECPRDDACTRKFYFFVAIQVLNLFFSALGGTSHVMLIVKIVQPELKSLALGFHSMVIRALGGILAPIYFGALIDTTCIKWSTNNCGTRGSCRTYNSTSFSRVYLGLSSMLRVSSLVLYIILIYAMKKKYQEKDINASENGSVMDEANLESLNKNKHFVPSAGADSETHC

[3] = target: T1, Solute carrier organic anion transporter family member 1B3; assay: Inhibition of human OATP1B3-mediated [3H]CCK-8 after 5 mins by Dixon plot method; type: ADME
[4] = target: T1, Solute carrier organic anion transporter family member 1B3; assay: Inhibition of human OATP1B3-mediated [3H]CCK-8 at 100 uM after 5 mins relative to control; type: ADME
[5] = target: T2, Solute carrier organic anion transporter family member 1B1; assay: Inhibition of human OATP1B1-mediated [3H]estrone 3-sulfate at 100 uM after 5 mins relative to control; type: ADME
[6] = target: T2, Solute carrier organic anion transporter family member 1B1; assay: Inhibition of human OATP1B1-mediated [3H]estrone 3-sulfate at after 5 mins by Dixon plot method; type: ADME
OATP1B3 = target: T3, OATP1B3 (Homo sapiens, UniProt Q9NPD5); assay: Inhibition of OATP1B3 (unknown origin)-mediated sodium fluorescein expressed in CHO cells at 10 uM; type: ADME, cell-based; settings: CHO cells expressing OATP1B3, probe sodium fluorescein
T3 sequence (Q9NPD5 whole entry): T1 sequence (Q9NPD5 whole entry)

Row | SMILES | Activity [1] [%] | Activity [2] [%] | inhibition (INH) [4] [%] | also measured
1 | Nc1ccn([C@@H]2O[C@H](CO)[C@@H](O)[C@@H]2O)c(=O)n1 [CYTARABINE] | 17.7 |  |  | 
2 | Nc1ccn([C@@H]2O[C@H](CO)[C@@H](O)C2(F)F)c(=O)n1 [GEMCITABINE] | 11.1 |  |  | 
3 | O=P1(N(CCCl)CCCl)NCCCO1 (centres undefined) [CYCLOPHOSPHAMIDE ANHYDROUS] | 8.7 | 5.6 |  | 
4 | O=C(O)CCCc1ccc(N(CCCl)CCCl)cc1 [CHLORAMBUCIL] |  | 18.8 | 66 | IC50 [3]: 80.7 µM; Ki [3]: 37.4 µM
5 | CC[C@]1(O)C[C@@H]2CN(CCc3c([nH]c4ccccc34)[C@@](C(=O)OC)(c3cc4c(cc3OC)N(C)[C@H]3[C@@](O)(C(=O)OC)[C@H](OC(C)=O)[C@]5(CC)C=CCN6CC[C@]43[C@@H]65)C2)C1 [VINBLASTINE] |  |  | 81.5 | IC50 [3]: 43.5 µM; Ki [3]: 18.6 µM; inhibition (INH) [5]: 64.1%; IC50 [6]: 46.8 µM; Ki [6]: 10.2 µM
6 | CC(=O)O[C@H]1C(=O)[C@@]2(C)[C@H]([C@H](OC(=O)c3ccccc3)[C@]3(O)C[C@H](OC(=O)[C@H](O)[C@@H](NC(=O)c4ccccc4)c4ccccc4)C(C)=C1C3(C)C)[C@]1(OC(C)=O)CO[C@@H]1C[C@@H]2O [PACLITAXEL] |  |  | 94.4 | inhibition at 10 µM (OATP1B3): 52.9%; IC50 [3]: 0.26 µM; Ki [3]: 1.8 µM
7 | O=C1c2c(O)ccc(O)c2C(=O)c2c(NCCNCCO)ccc(NCCNCCO)c21 [MITOXANTRONE] |  |  | 84.4 | IC50 [3]: 3.39 µM; Ki [3]: 3.1 µM; inhibition (INH) [5]: 18.9%
8 | CN(Cc1cnc2nc(N)nc(N)c2n1)c1ccc(C(=O)N[C@@H](CCC(=O)O)C(=O)O)cc1 [METHOTREXATE] | 12 |  |  | 
9 | CC[C@]1(O)C[C@H]2CN(CCc3c([nH]c4ccccc34)[C@@](C(=O)OC)(c3cc4c(cc3OC)N(C=O)[C@H]3[C@@](O)(C(=O)OC)[C@H](OC(C)=O)[C@]5(CC)C=CCN6CC[C@]43[C@@H]65)C2)C1 [VINCRISTINE] |  |  | 65.1 | IC50 [3]: 36.8 µM; Ki [3]: 17.6 µM; inhibition (INH) [5]: 28.1%
10 | Nc1nc(F)nc2c1ncn2[C@@H]1O[C@H](CO)[C@@H](O)[C@@H]1O [FLUDARABINE] | 12 |  |  | 
11 | Nc1nc(Cl)nc2c1ncn2[C@H]1C[C@H](O)[C@@H](CO)O1 [CLADRIBINE] | 10 | 15.9 |  | 
12 | CCc1c2c(nc3ccc(OC(=O)N4CCC(N5CCCCC5)CC4)cc13)-c1cc3c(c(=O)n1C2)COC(=O)[C@]3(O)CC [IRINOTECAN] |  | 93.3 | 34.3 | 
13 | COc1cccc2c1C(=O)c1c(O)c3c(c(O)c1C2=O)C[C@@](O)(C(=O)CO)C[C@@H]3O[C@H]1C[C@H](N)[C@H](O)[C@H](C)O1 [DOXORUBICIN] |  |  | 53.6 | inhibition (INH) [5]: 12%
14 | C[C@]12C=CC(=O)C=C1CC[C@@H]1[C@@H]2C(=O)C[C@@]2(C)[C@H]1CC[C@]2(O)C(=O)CO [PREDNISONE] |  |  | 12.5 | inhibition (INH) [5]: 9.8%
15 | S=P(N1CC1)(N1CC1)N1CC1 [THIOTEPA] |  | 11.9 |  | 
16 | O=P1(NCCCl)OCCCN1CCCl (centres undefined) [IFOSFAMIDE] |  | 7.4 |  | 
17 | Cn1c(CCCC(=O)O)nc2cc(N(CCCl)CCCl)ccc21 [BENDAMUSTINE] |  |  | 48.8 | 
